According to ChEMBL document CHEMBL3045917, “Insecticidal cyclodepsipeptides from Beauveria felina” (2011):
≈ marks a conversion by molar mass, not a printed value. Where a SMILES comes first, the peptide text is derived from it. [ ]: non-standard residue; d: D form. ξ: configuration not given here. ξLac(3-iPr) = CC(C)CC(O)C(=O)O; NMeV = CN[C@H](C(=O)O)C(C)C; βAla = NCCC(=O)O

How the values were obtained:
[1] = test system: Sitophilus; test: Insecticidal activity against Sitophilus spp. assessed as mortality after 5 days; type: functional; conditions: 120 h, read-out: LD50 (the source's name)
[2] = test system: Callosobruchus maculatus; test: Insecticidal activity against Callosobruchus maculatus assessed as mortality after 5 days; type: functional; conditions: 120 h, read-out: LD50 (the source's name)

`CCCCC(C)C1CC(=O)NCC(=O)N[C@@H](C(C)C)C(=O)N[C@H](CC(C)C)C(=O)N[C@@H](C)C(=O)N[C@H](C(C)C)C(=O)O1` (stereo partly drawn) [ISO-ISARIIN B] was tested, and the LC50 [1] was 10 µg/mL (≈ 16.8 µM).
Molecule `CC(C)CC1OC(=O)CCNC(=O)[C@H](C(C)C)N(C)C(=O)[C@H](C(C)C)N(C)C(=O)[C@H](Cc2ccccc2)NC(=O)[C@@H]2CCCN2C1=O` (stereo partly drawn) [ISARIDIN E] (cyclo(F[NMeV][NMeV][βAla][ξLac(3-iPr)]P)) has an LC50 [2] of 220 µg/mL (≈ 335 µM) and an LC50 [1] of 300 µg/mL (≈ 457 µM).
